Reference: patent US20260284086A1, “PHARMACEUTICAL COMPOSITION FOR TREATMENT OF INFLAMMATORY BOWEL DISEASE” (EA PHARMA CO., LTD., priority 2023, published 2026)
≈ marks a conversion by molar mass, not a printed value. Like-named read-outs stand apart in the source and are kept apart here.

Key:
[1] = Repeated Administration Study 1: L-SEDDS 400 mg once daily for 10 days, plasma Compound (2); assay type: in vivo, human
Experimental: (§1) This clinical trial was a single-center, randomized, double-blind, placebo-controlled, single and multiple ascending dose study with the primary objective of evaluating the safety and tolerability of Compound (1) when orally administered to healthy adult males.
(§2) Screening tests were conducted within 28 to 3 days before administration of the investigational drug to confirm the eligibility of the subjects, and the subjects were hospitalized 2 days before administration. After hospitalization, tests were conducted from 2 days before administration to the day of administration to confirm that there were no problems with eligibility, and then Compound (1) or placebo was randomly assigned. The subjects in each cohort consisted of 8 people, of which 6 were assigned to Compound (1) and 2 were assigned to placebo, and they were administered the drug.
(§3) Day 8, when repeated administration was started, corresponds to administration day 1 (Day 1), and day 17 corresponds to administration day 10 (Day 10). […]
(§4) The plasma concentration of Compound (2) was measured using a validated measurement method. Specifically, plasma was separated from collected blood and processed, and then the plasma concentration was measured by an LC/MS/MS apparatus.
(§5) For twice-daily administration of C-SEDDS, blood was further collected at 13, 14, 14.5, and 16 hours later to quantify Compound (2).

[2] = PK Simulation Analysis 2 by Superposition Method (200 mg twice daily); design: species or system human; details: Day 10 of repeated administration
Experimental: The plasma concentration of Compound (2) on day 10 of repeated administration at 200 mg twice daily (every 12 hours) was predicted using the superposition method implemented in the Nonparametric Superposition (NPS) tool of the analysis software Phoenix WinNonlin, applying the results of once-daily administration at 200 mg (Certara L.P.) (FIG. 6).

[3] = Repeated Administration Study 2: C-SEDDS 200 mg twice daily for 10 days, plasma Compound (2); assay type: in vivo, human
Experimental: as §1, §2, §3, §4, §5

[4] = PK Simulation Analysis 1 by Superposition Method (Phoenix WinNonlin NPS); design: species or system human; details: Compound (1) 50 mg; 2.5 times the 20 mg prediction
Excerpt: The plasma concentration profile of Compound (2) on day 10 of repeated administration was predicted using the superposition method implemented in the Nonparametric Superposition (NPS) tool of the analysis software Phoenix WinNonlin, applying the single-dose results (Certara L.P.) (FIG. 4).

[5] = Phase 1 single-dose administration study: plasma concentration of Compound (2) by LC/MS/MS after oral Compound (1); assay type: in vivo, human; details: Compound (1) 200 mg C-SEDDS single oral dose
[6] = molecular target: T1, MAdCAM-1 binding of lymphocytes (CD3-positive CD4-positive cells) (Homo sapiens, UniProt P13612+P26010); assay: Ex vivo integrin inhibitory activity: MAdCAM-1 binding inhibition rate of lymphocytes in plasma (flow cytometry); assay type: cell-based; details: for IC90: CD4 positive
T1 construct: endogenous in cells; host or cells: CD3-positive CD4-positive lymphocytes in heparinized whole blood of dosed healthy adult males
T1 sequence (P13612 34-1032): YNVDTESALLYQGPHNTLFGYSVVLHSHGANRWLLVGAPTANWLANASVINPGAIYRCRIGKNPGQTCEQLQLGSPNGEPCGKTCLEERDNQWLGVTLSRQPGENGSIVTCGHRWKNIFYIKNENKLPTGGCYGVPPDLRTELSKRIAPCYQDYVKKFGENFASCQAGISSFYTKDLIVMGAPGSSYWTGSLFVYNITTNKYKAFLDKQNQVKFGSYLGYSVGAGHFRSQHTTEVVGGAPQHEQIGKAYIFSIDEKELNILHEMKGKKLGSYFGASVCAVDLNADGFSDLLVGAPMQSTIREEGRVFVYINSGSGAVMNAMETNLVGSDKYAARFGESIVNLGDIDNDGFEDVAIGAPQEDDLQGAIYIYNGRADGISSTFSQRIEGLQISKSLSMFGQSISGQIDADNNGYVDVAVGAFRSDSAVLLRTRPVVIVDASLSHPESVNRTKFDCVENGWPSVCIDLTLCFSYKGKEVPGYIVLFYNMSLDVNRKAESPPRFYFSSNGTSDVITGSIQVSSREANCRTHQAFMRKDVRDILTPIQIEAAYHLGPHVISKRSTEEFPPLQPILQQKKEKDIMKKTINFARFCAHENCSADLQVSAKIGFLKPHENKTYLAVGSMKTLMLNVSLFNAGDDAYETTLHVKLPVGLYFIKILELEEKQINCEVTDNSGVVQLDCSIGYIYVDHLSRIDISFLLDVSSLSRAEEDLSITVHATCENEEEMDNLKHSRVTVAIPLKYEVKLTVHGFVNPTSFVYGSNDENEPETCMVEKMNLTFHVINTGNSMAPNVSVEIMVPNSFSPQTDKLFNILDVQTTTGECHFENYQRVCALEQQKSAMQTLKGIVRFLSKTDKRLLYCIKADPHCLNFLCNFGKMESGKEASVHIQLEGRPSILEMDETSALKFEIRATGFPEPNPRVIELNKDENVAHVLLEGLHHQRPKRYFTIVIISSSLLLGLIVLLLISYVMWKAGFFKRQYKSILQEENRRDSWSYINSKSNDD
T1 sequence (P26010 20-798): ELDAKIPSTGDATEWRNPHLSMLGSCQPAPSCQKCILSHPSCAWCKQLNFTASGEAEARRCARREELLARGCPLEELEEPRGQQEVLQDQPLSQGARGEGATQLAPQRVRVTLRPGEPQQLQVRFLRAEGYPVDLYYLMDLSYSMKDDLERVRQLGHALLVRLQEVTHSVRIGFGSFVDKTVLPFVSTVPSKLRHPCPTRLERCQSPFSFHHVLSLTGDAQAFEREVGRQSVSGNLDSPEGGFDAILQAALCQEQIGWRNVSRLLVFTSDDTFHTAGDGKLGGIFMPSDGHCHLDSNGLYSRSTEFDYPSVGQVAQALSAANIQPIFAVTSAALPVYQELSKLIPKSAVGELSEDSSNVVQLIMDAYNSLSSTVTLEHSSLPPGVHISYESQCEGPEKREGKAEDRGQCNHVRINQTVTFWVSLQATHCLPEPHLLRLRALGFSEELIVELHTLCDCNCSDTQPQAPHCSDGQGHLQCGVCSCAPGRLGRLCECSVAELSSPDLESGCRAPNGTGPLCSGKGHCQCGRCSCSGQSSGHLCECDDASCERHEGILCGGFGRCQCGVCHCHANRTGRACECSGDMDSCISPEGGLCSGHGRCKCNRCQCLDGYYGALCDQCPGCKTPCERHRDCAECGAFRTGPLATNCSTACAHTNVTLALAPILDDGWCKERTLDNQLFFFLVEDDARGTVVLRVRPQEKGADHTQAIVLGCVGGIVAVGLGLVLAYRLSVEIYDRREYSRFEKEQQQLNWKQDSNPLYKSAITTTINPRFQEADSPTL
Experimental: [MAdCAM-1 Binding Inhibition Rate (PD) of Lymphocytes in Plasma and IC90, IC50]
The MAdCAM-1 binding rate of lymphocytes in plasma was measured using a validated measurement method using the obtained blood samples, and the MAdCAM-1 binding inhibition rate of lymphocytes in plasma was calculated using Excel. Specifically, 5 μL of an 80 mM MnCl2 solution was added to 90 μL of heparinized blood and incubated at room temperature for 10 minutes. A volume of 5 μL of 200 μg/mL recombinant human MAdCAM-1/Fc (R&D Systems) was added to make a total volume of 100 μL, and the mixture was incubated at room temperature for 30 minutes. Subsequently, 1900 μL of BD Phosflow Lyse/Fix Buffer 5× (BD Biosciences) was added, and hemolysis and fixation were performed at 37° C. for 10 minutes. After centrifugation for 5 minutes, the supernatant was removed, and 2000 μL of RPMI-1640 medium supplemented with 10% inactivated fetal bovine serum (hereinafter referred to as medium) was added. After centrifugation for 5 minutes, the supernatant was removed and washed. After washing again with the medium, 50 μL of Brilliant Stain Buffer (BD Biosciences), 1.25 μL of MAdCAM-1 FITC (Hycult Biotech), 5 μL of CD4 PE (BD Biosciences), 2.5 μL of CD45RO APC (UCHL1) (BioLegend), 5 μL of CD3 BV421 (SK7) (BioLegend), and 2.5 μL of CD45 BV510 (HI30) (BioLegend) were added, and the mixture was incubated for 30 minutes. After washing with Stain Buffer (BSA) (BD Biosciences), the percentage of MAdCAM-1-positive cells among CD3-positive CD4-positive cells was measured using flow cytometry.
The percentage of MAdCAM-1-positive cells among CD3-positive CD4-positive cells was calculated by subtracting each measured value from the measured value when MAdCAM-1/Fc was not added as a control. The percentage of MAdCAM-1-positive cells among CD3-positive CD4-positive cells before administration of Compound (1) or placebo was set as 0% inhibition, and the MAdCAM-1 binding inhibition rate at each blood collection time point was obtained. Furthermore, the concentration IC50 that causes 50% binding inhibition and the concentration IC90 that causes 90% binding inhibition were calculated.
The MAdCAM-1 binding inhibition rate (PD) of lymphocytes in plasma was evaluated using collected blood, and the correlation with the plasma concentration (PK) of Compound (2) was plotted (FIG. 5).

With Cc1cc(=O)n(-c2ccc(C[C@H](NC(=O)c3cc(F)c(NS(=O)(=O)c4ccc(NC(=O)C(C)(C)C)cc4)cc3F)C(=O)O)cn2)c(=O)n1C [Compound (2)] the “increase of plasma concentration (trough value) after 24 hours, Day 10 of repeated vs single-dose administration” value ([1]; Compound (1) 400 mg L-SEDDS once daily) was “more than threefold”, the “trough concentration relative to IC90” value ([1]; once-daily administration of L-SEDDS (Compound (1) 400 mg)) was “maintained above IC90 (6.9 mg/mL) from the second day of administration” and the “predicted trough value (200 mg twice daily) relative to measured trough value (400 mg once daily)” value [2] was “about twice”. For the same compound, the “increase of plasma concentration (trough value) 12 hours after the second dose on Day 10 of repeated vs single-dose administration” value ([3]; Compound (1) 200 mg C-SEDDS twice daily) was “about eightfold”, the “trough concentration relative to IC90” value ([3]; twice-daily administration of C-SEDDS (Compound (1) 200 mg)) was “maintained above IC90 (6.9 mg/mL) from the third day of administration” and the “estimated Cmax on the 10th day of repeated administration” value [4] was 3.63 ng/mL. For the same compound, the “plasma concentration of Compound (2)” value ([5]; 0.5 h post-dose) was “Below quantitation limit”, the “plasma concentration of Compound (2)” value ([5]; 1 h post-dose) was “Below quantitation limit” and the IC90 ([6]; ex vivo, blood of healthy adult males given Compound (1), read-out: IC90 (plasma concentration that causes 90% MAdCAM-1 binding inhibition)) was 6.9 ng/mL (≈ 9.88 nM). For the same compound, the IC90 ([6]; read-out: IC90) was 6.9 ng/mL (≈ 9.88 nM), the IC50 ([6]; ex vivo, blood of healthy adult males given Compound (1), read-out: IC50 (plasma concentration that causes 50% MAdCAM-1 binding inhibition) (converted)) was 2.72 nM and the “correlation of plasma concentration (PK) with MAdCAM-1 binding inhibition rate (PD)” value ([6]; ex vivo, collected blood, FIG. 5) was “correlated”.
